# From patent US6653306B1, “Epoxy-steroidal aldosterone antagonist and angiotensin II antagonist combination therapy” (G.D. Searle & Co., priority 1995, dated 2003)
# Molecular target: angiotensin II AT1 receptor
# Assay: Assay A: Angiotensin II binding activity (125I-AII displacement, rat uterine membrane preparation)
# Experimental: Assay A: Antiotensin II Binding Activity
# Compounds of the invention were tested for ability to bind to the smooth muscle angiotensin II receptor using a rat uterine membrane preparation. […] Rat uterine membranes were prepared from fresh tissue. All procedures were carried out at 4° C. Uteri were stripped of fat and homogenized in phosphate-buffered saline at pH 7.4 containing 5 mM EDTA. The homogenate was centrifuged at 1500×g for 20 min., and the supernatant was recentrifuged at 100,000×g for 60 min. The pellet was resuspended in buffer consisting of 2 mM EDTA and 50 mM Tris-HCl (pH 7.5) to a final protein concentration of 4 mg/ml. […] The reaction was initiated by the addition of membrane protein and the mixture was incubated at 25° C. for 60 min. The incubation was terminated with ice-cold 50 mM Tris-HCl (pH 7.5) and the mixture was filtered to separate membrane-bound labelled peptide from the free ligand. The incubation tube and filter were washed with ice-cold buffer. Filters were assayed for radioactivity in a Micromedic gamma counter.
# Nonspecific binding was defined as binding in the presence of 10 μM of unlabelled AII. Specific binding was calculated as total binding minus nonspecific binding. […] Binding data were analyzed by a nonlinear least-squares curve fitting program.
row,Structure (SMILES),IC50
1,CCCCc1nc(-c2ccccc2)nn1Cc1ccc(-c2ccccc2-c2nnn[nH]2)cc1 [Compound 21],87 nM
2,CCCCc1nc(C(OC)OC)n(Cc2ccc(-c3ccccc3-c3nnn[nH]3)cc2)n1 [Compound 23],430 nM
3,CCCCc1nc(CN)nn1Cc1ccc(-c2ccccc2-c2nnn[nH]2)cc1 [Compound 27],180 nM
4,CCCCCCCCc1nc(CCCC)nn1Cc1ccc(-c2ccccc2-c2nnn[nH]2)cc1 [Compound 28],570 nM
5,CCCCc1nc(C)nn1Cc1ccc(-c2ccccc2-c2nnn[nH]2)cc1 [Compound 32],16 nM
6,CCCCc1nc(C)n(Cc2ccc(-c3ccccc3-c3nnn[nH]3)cc2)n1 [Compound 33],630 nM
7,CCCCc1nc(CNC(=O)OC(C)(C)C)n(Cc2ccc(-c3ccccc3-c3nnn[nH]3)cc2)n1 [Compound 34],640 nM
8,CCCCc1nc(CCC2CCCCC2)nn1Cc1ccc(-c2ccccc2-c2nnn[nH]2)cc1 [Compound 43],19 nM
9,CCCCc1nc(Cc2ccccc2)nn1Cc1ccc(-c2ccccc2-c2nnn[nH]2)cc1 [Compound 44],16 nM
10,CCCCc1nc(C(F)F)n(Cc2ccc(-c3ccccc3-c3nnn[nH]3)cc2)n1 [Compound 48],680 nM
11,CCCCc1nc(C23CC4CC(CC(C4)C2)C3)nn1Cc1ccc(-c2ccccc2-c2nnn[nH]2)cc1 [Compound 56],5 nM
12,CCCCc1nc(CC23CC4CC(CC(C4)C2)C3)n(Cc2ccc(-c3ccccc3-c3nnn[nH]3)cc2)n1 [Compound 61],110 nM
13,CCCCc1nc(C2CCCCC2)nn1Cc1ccc(-c2ccccc2-c2nnn[nH]2)cc1 [Compound 66],12 nM
14,CCCCc1nc(CCCNC(=O)OC(C)(C)C)nn1Cc1ccc(-c2ccccc2-c2nnn[nH]2)cc1 [Compound 68],8.6 nM
15,CCCCc1nn(/C(Cc2ccccc2)=C(/OCc2ccccc2)c2ccccc2)c(=O)n1Cc1ccc(-c2ccccc2-c2nn[nH]n2)cc1 [Compound 93],480 nM
16,CCCCc1nn(C/C=C/c2ccccc2)c(=O)n1Cc1ccc(-c2ccccc2-c2nn[nH]n2)cc1 [Compound 105],290 nM
17,CCCCCn1nc(CCCC)nc1Cc1ccc(-c2ccccc2-c2nnn[nH]2)nc1 [Compound 155],86 nM
18,CCCCn1nc(C(F)CCC)nc1Cc1ccc(-c2ccccc2-c2nnn[nH]2)nc1 (stereo not shown) [Compound 161],28 nM
19,CCn1nc(C(C)(F)F)nc1Cc1ccc(-c2ccccc2-c2nnn[nH]2)nc1 [Compound 164],1700 nM
20,CCCCn1nc(C(C)(OC)OC)nc1Cc1ccc(-c2ccccc2-c2nnn[nH]2)nc1 [Compound 182],59 nM
21,CCCn1cc(CC(C)C)n(Cc2ccc(-c3ccccc3-c3nnn[nH]3)nc2)c1=O [Compound 187],770 nM
22,CCCCn1cc(CC(C)C)n(Cc2ccc(-c3ccccc3-c3nnn[nH]3)nc2)c1=O [Compound 188],140 nM
23,CCCCn1cc(CCC(C)C)n(Cc2ccc(-c3ccccc3-c3nnn[nH]3)nc2)c1=O [Compound 189],29 nM

row,Structure (SMILES),IC50
1,CCCCc1cn(C)c(=O)n1Cc1ccc(-c2ccccc2-c2nnn[nH]2)nc1 [Compound 194],47 nM
2,CCCCc1cn(CC)c(=O)n1Cc1ccc(-c2ccccc2-c2nnn[nH]2)nc1 [Compound 195],34 nM
3,CCCCc1cn(CCC)c(=O)n1Cc1ccc(-c2ccccc2-c2nnn[nH]2)nc1 [Compound 196],31 nM
4,CCCCc1cn(C2CCCC2)c(=O)n1Cc1ccc(-c2ccccc2-c2nnn[nH]2)nc1 [Compound 207],99 nM
5,CCCCc1cn(C2C3CC4CC(C3)C2C4)c(=O)n1Cc1ccc(-c2ccccc2-c2nnn[nH]2)nc1 (stereo not shown) [Compound 213],51 nM
6,CCCCc1cn(C23CC4CC(CC(C4)C2)C3)c(=O)n1Cc1ccc(-c2ccccc2-c2nnn[nH]2)nc1 [Compound 214],65 nM
7,CCCCc1cn(-c2ccccc2)c(=O)n1Cc1ccc(-c2ccccc2-c2nnn[nH]2)nc1 [Compound 215],45 nM
8,CCCCc1cn(-c2ccccc2OC)c(=O)n1Cc1ccc(-c2ccccc2-c2nnn[nH]2)nc1 [Compound 218],9 nM
9,CCCCc1cn(-c2ccccc2C(C)C)c(=O)n1Cc1ccc(-c2ccccc2-c2nnn[nH]2)nc1 [Compound 219],14 nM
10,CCCCc1cn(-c2c(C)cccc2C)c(=O)n1Cc1ccc(-c2ccccc2-c2nnn[nH]2)nc1 [Compound 222],5 nM
11,CCCCc1cn(CCCC)c(=O)n1Cc1ccc(-c2ncccc2-c2nnn[nH]2)cc1 [Compound 224],91 nM
12,CCCCc1cn(CCCC)c(=O)n1Cc1ccc(-c2cccnc2-c2nnn[nH]2)cc1 [Compound 227],89 nM
13,CCCCc1cn(-c2c(C(C)C)cccc2C(C)C)c(=O)n1Cc1ccc(-c2ccccc2-c2nnn[nH]2)nc1 [Compound 235],34 nM
14,CCCCc1nc(CCCC)n(Cc2ccc(-c3ccccc3C(=O)O)nc2)n1 [Compound 240],120 nM
15,CCCCc1nc(CCCC)n(Cc2ccc(-c3cccnc3-c3nnn[nH]3)cc2)n1 [Compound 242],110 nM
16,CCCCc1nc(CCCC)n(Cc2ccc(-c3ccncc3-c3nnn[nH]3)cc2)n1 [Compound 243],250 nM
17,CCCCc1nc(CC(CC)CC)n(Cc2ccc(-c3ccccc3-c3nnn[nH]3)nc2)n1 [Compound 252],13 nM
18,CCCCc1nc(CCc2ccccc2)nn1Cc1ccc(-c2ccccc2-c2nnn[nH]2)nc1 [Compound 253],2.6 nM
19,CCCCc1nc(CCc2ccccc2)n(Cc2ccc(-c3ccccc3-c3nnn[nH]3)nc2)n1 [Compound 254],72 nM
20,CCCCc1nc(-c2ccccc2)nn1Cc1ccc(-c2ccccc2-c2nnn[nH]2)nc1 [Compound 259],54 nM
21,CCCCc1nc(-c2ccccc2C)nn1Cc1ccc(-c2ccccc2-c2nnn[nH]2)nc1 [Compound 261],18 nM
22,CCCCc1nc(-c2ccccc2OC)nn1Cc1ccc(-c2ccccc2-c2nnn[nH]2)nc1 [Compound 265],110 nM

# Continued by falling IC50, values first:
row,IC50,Structure (SMILES)
1,12000 nM,CCCCc1nc(CCCN)n(Cc2ccc(-c3ccccc3-c3nnn[nH]3)cc2)n1 [Compound 71]
2,5800 nM,CCCCc1nn(C(Cc2ccccc2)C(=O)c2ccccc2)c(=O)n1Cc1ccc(-c2ccccc2-c2nn[nH]n2)cc1 (stereo not shown) [Compound 94]
3,2200 nM,CCCCc1nc(CF)n(Cc2ccc(-c3ccccc3-c3nnn[nH]3)cc2)n1 [Compound 60]
4,570 nM,CCCCc1nc(CC)nn1Cc1ccc(-c2ccccc2C(=O)O)cc1 [Compound 75]
5,390 nM,CCCCn1nc(C(C)=O)nc1Cc1ccc(-c2ccccc2-c2nnn[nH]2)nc1 [Compound 183]
6,220 nM,CCCCc1nc(-c2ccccc2)n(Cc2ccc(-c3ccccc3-c3nnn[nH]3)nc2)n1 [Compound 260]
7,160 nM,CCCCCCCCc1nc(CCCC)n(Cc2ccc(-c3ccccc3-c3nnn[nH]3)cc2)n1 [Compound 29]
8,160 nM,CCCCc1cn(CCCC)c(=O)n1Cc1ccc(-c2cnccc2-c2nnn[nH]2)cc1 [Compound 225]
9,140 nM,CCCCn1cc(C2CCCC2)n(Cc2ccc(-c3ccccc3-c3nnn[nH]3)nc2)c1=O [Compound 192]
10,120 nM,CCCCc1nc(CF)nn1Cc1ccc(-c2ccccc2-c2nnn[nH]2)cc1 [Compound 59]
11,98 nM,CCCCc1nc(CCCC)n(Cc2ccc(-c3ncccc3-c3nnn[nH]3)cc2)n1 [Compound 245]
12,93 nM,CCCCc1cn(CCCC)c(=O)n1Cc1ccc(-c2ccncc2-c2nnn[nH]2)cc1 [Compound 226]
13,90 nM,CCCCn1nc(C(=O)NC(C)(C)C)nc1Cc1ccc(-c2ccccc2-c2nnn[nH]2)nc1 [Compound 173]
14,84 nM,CCCCc1cn(-c2c(C)cc(C(C)(C)C)cc2C)c(=O)n1Cc1ccc(-c2ccccc2-c2nnn[nH]2)nc1 [Compound 233]
15,83 nM,CCCCc1nc(CC)n(Cc2ccc(-c3ccccc3-c3nnn[nH]3)cc2)n1 [Compound 40]
16,80 nM,CCCCc1nc(C23CC4CC(CC(C4)C2)C3)n(Cc2ccc(-c3ccccc3-c3nnn[nH]3)cc2)n1 [Compound 55]
17,78 nM,CCCCCc1nc(Cc2ccc(-c3ccccc3-c3nnn[nH]3)nc2)n(CCCC)n1 [Compound 156]
18,57 nM,CCCCc1nc(-c2ccccc2C(C)C)nn1Cc1ccc(-c2ccccc2-c2nnn[nH]2)nc1 [Compound 263]
19,26 nM,CCCCn1nc(C(OCCC)OCCC)nc1Cc1ccc(-c2ccccc2-c2nnn[nH]2)nc1 [Compound 177]
20,25 nM,CCCCc1nc(CC(CC)CC)nn1Cc1ccc(-c2ccccc2-c2nnn[nH]2)nc1 [Compound 251]
21,15 nM,CCCCc1nc(C(F)(F)C(F)(F)F)nn1Cc1ccc(-c2ccccc2-c2nnn[nH]2)cc1 [Compound 69]
22,14 nM,CCCCc1nc(C(=O)CCC)nn1Cc1ccc(-c2ccccc2-c2nnn[nH]2)cc1 [Compound 31]
23,14 nM,CCCCc1cn(CC(C)C)c(=O)n1Cc1ccc(-c2ccccc2-c2nnn[nH]2)nc1 [Compound 197]
24,11 nM,CCCCc1nc(-c2ccccc2C(C)C)n(Cc2ccc(-c3ccccc3-c3nnn[nH]3)nc2)n1 [Compound 264]
25,10 nM,CCCCc1nc(CC(OCC)OCC)nn1Cc1ccc(-c2ccccc2-c2nnn[nH]2)cc1 [Compound 38]
26,9.5 nM,CCCCn1nc(CCc2ccccc2)nc1Cc1ccc(-c2ccccc2-c2nnn[nH]2)cc1 [Compound 131]
27,4.4 nM,CCCCc1nn(CCCCC(=O)OC)c(=O)n1Cc1ccc(-c2ccccc2-c2nn[nH]n2)cc1 [Compound 100]
28,3.6 nM,CCCCc1cn(C2CCCCC2(C)C)c(=O)n1Cc1ccc(-c2ccccc2-c2nnn[nH]2)nc1 (stereo not shown) [Compound 237]
